Source: paper PMC9209747 (Neuro-oncology Advances, 2022)
Like-named read-outs stand apart in the source and are kept apart here.

Legend:
clinical = conditions: human, in vivo
Protocol: Pharmacokinetic parameters were calculated using noncompartmental methods[20] using Phoenix® WinNonlin® Version 8.1 (WinNonlin version 8.1.03530, Pheonix 64; Pharsight Corporation, Mountain View, CA). […] Oral steady-state clearance (ClSS/F) was calculated using the equation, ClSS = Dose/AUCτ.

[1] = cited from earlier work
[2] = system: pediatric glioma cell lines including a DIPG derived cell line; parameters: method as in PMID 24305702; conditions: effect enhanced by radiation; cited from earlier work

For `C=CCn1c(=O)c2cnc(Nc3ccc(N4CCN(C)CC4)cc3)nc2n1-c1cccc(C(C)(C)O)n1` [adavosertib], the AUC (clinical; 50 mg/m2) was 2.45 ± 1.04 µM·h, the AUC0-8h (clinical; 50 mg/m2) was 1.42 ± 0.438 µM·h and the AUC(0-inf) (clinical; 50 mg/m2) was 2.22 ± 0.8 µM·h. For the same compound, the “CLss (steady-state clearance)” value (clinical; 50 mg/m2) was 47.9 ± 23.2 L/hr/m^2, the Cmax (clinical; 50 mg/m2) was 356 ± 109 nM and the Tmax (clinical; 50 mg/m2) was 1.9 ± 0.9 h. For the same compound, the half-life (clinical; 50 mg/m2) was 4.2 ± 1.3 h, the AUC(0-t) (clinical; 50 mg/m2, AUC0-8h) was 1.65 ± 0.654 µM·h and the Cmax (clinical; 50 mg/m2, Cmax) was 422 ± 170 nM. For the same compound, the Tmax (clinical; 50 mg/m2, Tmax) was 1.9 ± 0.9 h, the AUC (clinical; 95 mg/m2) was 5.74 ± 2.72 µM·h and the AUC0-8h (clinical; 95 mg/m2) was 3.362 ± 0.85 µM·h. The AUC(0-inf) (clinical; 95 mg/m2) was 6.03 ± 1.98 µM·h, the “CLss (steady-state clearance)” value (clinical; 95 mg/m2) was 39.2 ± 17.2 L/hr/m^2 and the Cmax (clinical; 95 mg/m2) was 869 ± 235 nM. For the same compound, the Tmax (clinical; 95 mg/m2) was 1.8 ± 0.4 h, the half-life (clinical; 95 mg/m2) was 4.5 ± 1.2 h and the AUC(0-t) (clinical; 95 mg/m2, AUC0-8h) was 4.01 ± 1.81 µM·h. For the same compound, the Cmax (clinical; 95 mg/m2, Cmax) was 933 ± 351 nM, the Tmax (clinical; 95 mg/m2, Tmax) was 1.9 ± 0.5 h and the AUC (clinical; 130 mg/m2) was 7.21 ± 2.76 µM·h. For the same compound, the AUC0-8h (clinical; 130 mg/m2) was 3.731 ± 1.583 µM·h, the AUC(0-inf) (clinical; 130 mg/m2) was 5.87 ± 2.26 µM·h and the “CLss (steady-state clearance)” value (clinical; 130 mg/m2) was 41.6 ± 19.8 L/hr/m^2. It also gave a Cmax (clinical; 130 mg/m2) of 821 ± 410 nM, a half-life (clinical; 130 mg/m2) of 4.1 ± 0.5 h and an AUC(0-t) (clinical; 130 mg/m2, AUC0-8h) of 4.48 ± 1.77 µM·h. The Cmax (clinical; 130 mg/m2, Cmax) was 994 ± 467 nM, the Tmax (clinical; 130 mg/m2, Tmax) was 2.3 ± 0.8 h and the AUC (clinical; 160 mg/m2) was 12.8 ± 1.8 µM·h. The AUC0-8h (clinical; 160 mg/m2) was 6.689 ± 2.738 µM·h, the AUC(0-inf) (clinical; 160 mg/m2) was 11.4 ± 3.73 µM·h and the “CLss (steady-state clearance)” value (clinical; 160 mg/m2) was 25.6 ± 3.3 (n* = 4) L/hr/m^2. For the same compound, the Cmax (clinical; 160 mg/m2) was 1270 ± 705 nM, the half-life (clinical; 160 mg/m2) was 4.8 ± 1 h and the AUC(0-t) (clinical; 160 mg/m2, AUC0-8h) was 8.47 ± 2.36 µM·h. The Cmax (clinical; 160 mg/m2, Cmax) was 1690 ± 670 nM, the Tmax (clinical; 160 mg/m2, Tmax) was 2.2 ± 1.1 h and the AUC (clinical; 200 mg/m2) was 16.4 ± 7.76 µM·h. The AUC0-8h (clinical; 200 mg/m2) was 6.904 ± 2.758 µM·h, the AUC(0-inf) (clinical; 200 mg/m2) was 12.2 ± 1.7 µM·h and the “CLss (steady-state clearance)” value (clinical; 200 mg/m2) was 33.4 ± 25.8 L/hr/m^2. The Cmax (clinical; 200 mg/m2) was 1650 ± 1050 nM, the Tmax (clinical; 200 mg/m2) was 2.5 ± 2.1 h and the half-life (clinical; 200 mg/m2) was 5.6 ± 1.3 h. It also gave an AUC(0-t) (clinical; 200 mg/m2, AUC0-8h) of 9.63 ± 4.22 µM·h, a Cmax (clinical; 200 mg/m2, Cmax) of 2020 ± 780 nM and a Tmax (clinical; 200 mg/m2, Tmax) of 2.6 ± 1.4 h. The Mean oral clearance (clinical; po) was 46.9 L/h, the Tmax (clinical; po, Tmax) was 2 h and the “Elimination half-life (t1/2)” value ([1]; adult patients) was 9 to 11 h. For the same compound, the Tmax ([1]; adult patients) was 4 h, the Mean oral clearance ([1]; fasting adults, ref a recent report of a food-effect study) was 40.85 L/h and the “Anti-proliferative effect in clonogenic survival assays” value [2] was “dose-dependent anti-proliferative effects”.
